# In ChEMBL document CHEMBL5046228 (Eur J Med Chem, 2022):
# Legend:
# [1] = target: Epidermal growth factor receptor (Homo sapiens, UniProt P00533, EX19DEL); test: Inhibition of EGFR del19 (unknown origin) using flurogenic substrate in presence of ATP by HTRF assay
# [2] = Selectivity index, ratio of IC50 Inhibition of wild type EGFR (unknown origin) to IC50 for Inhibition of EGFR T790M/C797S double mutant (unknown origin)
# [3] = target: Epidermal growth factor receptor (Homo sapiens, UniProt P00533); test: Inhibition of wild type EGFR (unknown origin) using flurogenic substrate in presence of ATP by HTRF assay
# [4] = target: Epidermal growth factor receptor (Homo sapiens, UniProt P00533, C797S/T790M); test: Inhibition of EGFR T790M/C797S double mutant (unknown origin) using flurogenic substrate in presence of ATP by HTRF assay
# NCI-H1975 [5] = test: cells; assay type: functional, cell-based; conditions: Homo sapiens, NCI-H1975, 72 h
# in vitro [6] = conditions: human
# NCI-H1299 [7] = test: Antiproliferative activity against human NCI-H1299 cells expressing wild type EGFR assessed as inhibition in cell viability after 72 hrs by CCK8 assay; assay type: functional, cell-based; conditions: NCI-H1299, 72 h
# in vitro [8] = conditions: human; remark: listed apart in the source
# HCC827 = test: Antiproliferative activity against human HCC827 cells expressing EGFR del119 mutant assessed as inhibition in cell viability after 72 hrs by CCK8 assay; assay type: functional, cell-based; conditions: HCC827, 72 h
# A549 = test: Antiproliferative activity against human A549 cells expressing wild type EGFR assessed as inhibition in cell viability after 72 hrs by CCK8 assay; assay type: functional, cell-based; conditions: A549, 72 h
# NCI-H1975 [9] = test: Induction of cell cycle arrest in human NCI-H1975 cells assessed as accumulation at G2/M phase at 2.5 uM after 36 hrs by PI staining based flow cytometry analysis (reference value: 43.1%); assay type: functional
# NCI-H1299 [10] = test: Induction of cell cycle arrest in human NCI-H1299 cells assessed as accumulation at S phase at 2.5 uM after 36 hrs by PI staining based flow cytometry analysis (reference value: 24.8%); assay type: functional
# NCI-H1975 [11] = test: Induction of apoptosis in human NCI-H1975 cells assessed as increase in late apoptotic cells at 2.5 uM after 36 hrs by annexin-V-FITC/PI staining based flow cytometric analysis (reference value: 3.85%); assay type: functional
# NCI-H1975 [12] = test: Induction of apoptosis in human NCI-H1975 cells assessed as increase in early apoptotic cells at 2.5 uM after 36 hrs by annexin-V-FITC/PI staining based flow cytometric analysis (reference value: 1.24%); assay type: functional
# NCI-H1975 [13] = test: Induction of apoptosis in human NCI-H1975 cells assessed as increase in necrotic cells at 2.5 uM after 36 hrs by annexin-V-FITC/PI staining based flow cytometric analysis (reference value: 0.35%); assay type: functional
# NCI-H1975 [14] = test: Induction of apoptosis in human NCI-H1975 cells assessed as increase in viable cells at 2.5 uM after 36 hrs by annexin-V-FITC/PI staining based flow cytometric analysis (reference value: 94.6%); assay type: functional
# NCI-H1299 [15] = test: Induction of cell cycle arrest in human NCI-H1299 cells assessed as accumulation at G0/G1 phase at 2.5 uM after 36 hrs by PI staining based flow cytometry analysis (reference value: 70.2%); assay type: functional
# NCI-H1299 [16] = test: Induction of apoptosis in human NCI-H1299 cells assessed as increase in necrotic cells at 2.5 uM after 36 hrs by annexin-V-FITC/PI staining based flow cytometric analysis (reference value: 0.75%); assay type: functional
# NCI-H1299 [17] = test: Induction of apoptosis in human NCI-H1299 cells assessed as increase in late apoptotic cells at 2.5 uM after 36 hrs by annexin-V-FITC/PI staining based flow cytometric analysis (reference value: 4.39%); assay type: functional
# NCI-H1975 [18] = test: Induction of cell cycle arrest in human NCI-H1975 cells assessed as accumulation at S phase at 2.5 uM after 36 hrs by PI staining based flow cytometry analysis (reference value: 32.7 %); assay type: functional
# NCI-H1299 [19] = test: Induction of apoptosis in human NCI-H1299 cells assessed as increase in viable cells at 2.5 uM after 36 hrs by annexin-V-FITC/PI staining based flow cytometric analysis (reference value: 94.1%); assay type: functional
# NCI-H1975 [20] = test: Induction of cell cycle arrest in human NCI-H1975 cells assessed as accumulation at G0/G1 phase at 2.5 uM after 36 hrs by PI staining based flow cytometry analysis (reference value: 24.2%); assay type: functional
# NCI-H1299 [21] = test: Induction of cell cycle arrest in human NCI-H1299 cells assessed as accumulation at G2/M phase at 2.5 uM after 36 hrs by PI staining based flow cytometry analysis (reference value: 5.6%); assay type: functional
# NCI-H1299 [22] = test: Induction of apoptosis in human NCI-H1299 cells assessed as increase in early apoptotic cells at 2.5 uM after 36 hrs by annexin-V-FITC/PI staining based flow cytometric analysis (reference value: 0.79%); assay type: functional
# Sequence of Epidermal growth factor receptor (Homo sapiens, UniProt P00533, EX19DEL) (P00533 whole entry, looked up, stated change not applied): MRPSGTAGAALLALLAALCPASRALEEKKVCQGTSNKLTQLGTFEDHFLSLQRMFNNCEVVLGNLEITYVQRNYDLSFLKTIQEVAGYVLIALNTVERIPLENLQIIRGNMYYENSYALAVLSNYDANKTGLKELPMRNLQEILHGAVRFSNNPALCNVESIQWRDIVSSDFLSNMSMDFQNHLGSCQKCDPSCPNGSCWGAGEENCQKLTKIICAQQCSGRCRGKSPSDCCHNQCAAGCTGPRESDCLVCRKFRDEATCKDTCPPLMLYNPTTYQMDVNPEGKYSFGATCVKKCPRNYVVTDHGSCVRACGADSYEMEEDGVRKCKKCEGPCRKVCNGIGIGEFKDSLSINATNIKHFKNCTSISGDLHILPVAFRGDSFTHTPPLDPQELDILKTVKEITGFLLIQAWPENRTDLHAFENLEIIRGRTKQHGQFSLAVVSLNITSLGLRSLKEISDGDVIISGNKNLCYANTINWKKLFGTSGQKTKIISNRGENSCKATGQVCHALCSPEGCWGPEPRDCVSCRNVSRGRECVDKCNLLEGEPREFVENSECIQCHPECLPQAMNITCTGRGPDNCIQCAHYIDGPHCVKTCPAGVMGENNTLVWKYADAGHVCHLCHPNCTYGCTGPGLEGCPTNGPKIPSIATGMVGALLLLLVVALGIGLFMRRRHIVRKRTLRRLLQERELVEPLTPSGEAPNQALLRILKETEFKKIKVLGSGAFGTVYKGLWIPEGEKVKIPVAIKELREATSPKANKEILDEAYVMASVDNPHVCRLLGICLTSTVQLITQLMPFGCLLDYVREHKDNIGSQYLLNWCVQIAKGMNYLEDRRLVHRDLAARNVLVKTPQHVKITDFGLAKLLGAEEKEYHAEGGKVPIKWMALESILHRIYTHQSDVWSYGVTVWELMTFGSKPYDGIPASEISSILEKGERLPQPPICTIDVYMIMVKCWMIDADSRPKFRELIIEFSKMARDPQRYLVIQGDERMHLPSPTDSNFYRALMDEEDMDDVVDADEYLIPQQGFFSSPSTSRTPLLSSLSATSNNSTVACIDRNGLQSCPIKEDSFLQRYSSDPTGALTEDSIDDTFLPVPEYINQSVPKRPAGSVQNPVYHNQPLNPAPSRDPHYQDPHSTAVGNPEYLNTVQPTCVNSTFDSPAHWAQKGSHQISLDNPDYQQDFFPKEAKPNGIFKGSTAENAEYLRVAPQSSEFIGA
# Sequence of Epidermal growth factor receptor (Homo sapiens, UniProt P00533) (P00533 whole entry): as the sequence (P00533 whole entry, looked up, stated change not applied) above
# Sequence of Epidermal growth factor receptor (Homo sapiens, UniProt P00533, C797S/T790M) (P00533 25-1210 T790M/C797S limits assumed): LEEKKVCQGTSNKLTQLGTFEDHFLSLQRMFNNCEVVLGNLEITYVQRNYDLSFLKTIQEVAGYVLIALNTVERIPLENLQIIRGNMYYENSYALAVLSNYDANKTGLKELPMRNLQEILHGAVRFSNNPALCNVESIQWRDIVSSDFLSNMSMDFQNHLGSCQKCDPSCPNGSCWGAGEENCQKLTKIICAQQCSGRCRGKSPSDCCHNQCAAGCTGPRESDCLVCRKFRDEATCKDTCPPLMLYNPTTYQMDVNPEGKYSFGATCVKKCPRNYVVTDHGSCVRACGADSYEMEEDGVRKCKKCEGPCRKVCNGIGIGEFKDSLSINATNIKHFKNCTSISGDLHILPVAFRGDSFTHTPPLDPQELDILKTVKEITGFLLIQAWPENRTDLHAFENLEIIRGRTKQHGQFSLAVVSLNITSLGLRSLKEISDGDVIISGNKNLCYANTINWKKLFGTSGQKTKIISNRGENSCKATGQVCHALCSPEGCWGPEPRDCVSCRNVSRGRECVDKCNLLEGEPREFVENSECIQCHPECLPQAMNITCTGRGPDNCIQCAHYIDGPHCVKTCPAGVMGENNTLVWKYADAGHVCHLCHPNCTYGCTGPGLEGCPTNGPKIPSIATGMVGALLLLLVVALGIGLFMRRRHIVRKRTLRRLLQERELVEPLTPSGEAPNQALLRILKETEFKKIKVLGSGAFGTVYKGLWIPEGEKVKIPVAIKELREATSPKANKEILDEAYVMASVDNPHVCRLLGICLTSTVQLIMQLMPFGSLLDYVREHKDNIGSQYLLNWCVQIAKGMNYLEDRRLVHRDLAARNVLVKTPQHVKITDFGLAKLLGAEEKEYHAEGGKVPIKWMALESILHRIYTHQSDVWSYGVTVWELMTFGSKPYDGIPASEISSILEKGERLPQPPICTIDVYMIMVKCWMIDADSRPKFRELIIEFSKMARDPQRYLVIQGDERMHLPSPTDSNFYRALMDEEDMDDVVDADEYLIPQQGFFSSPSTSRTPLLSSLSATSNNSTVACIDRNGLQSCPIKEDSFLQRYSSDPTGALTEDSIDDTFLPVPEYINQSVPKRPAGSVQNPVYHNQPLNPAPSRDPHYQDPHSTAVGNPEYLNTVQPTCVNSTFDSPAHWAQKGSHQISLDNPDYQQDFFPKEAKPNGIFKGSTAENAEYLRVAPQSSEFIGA
Structure (SMILES),IC50 [1] [nM],Ratio IC50 [2],IC50 [3] [nM],IC50 [4] [nM],IC50 (NCI-H1299 [7]) [nM],IC50 (HCC827) [nM],IC50 (A549) [nM],other results
C=CC(=O)Nc1cc(Nc2nccc(Nc3cnn(C)c3)n2)c(OC)cc1N(C)CCN(C)C,54.3,23.1,495,21.4,–,–,–,–
C=CC(=O)Nc1cc(Nc2nccc(Nc3ccn(C)n3)n2)c(OC)cc1N(C)CCN(C)C,12.6,15.6,96.5,6.2,–,–,–,–
C=CC(=O)Nc1cc(Nc2nccc(Nc3ccn(C)n3)n2)c(OC)cc1N(C)CCN(C)CC(=O)OC,106,22.5,952,42.4,–,–,–,–
C=CC(=O)Nc1cc(Nc2nccc(-c3cn(C)c4ccccc34)n2)c(OC)cc1N(C)CCN(C)C [OSIMERTINIB],–,–,–,–,2840,1.73,335,Activity (NCI-H1975 [9]): 65.4%; Activity (NCI-H1299 [10]): 24.3%; Activity (NCI-H1975 [11]): 18.1%; Activity (NCI-H1975 [12]): 40.8%; Activity (NCI-H1975 [13]): 0.016%; Activity (NCI-H1975 [14]): 41.1%; Activity (NCI-H1299 [15]): 67.3%; Activity (NCI-H1299 [16]): 0.43%; Activity (NCI-H1299 [17]): 7.44%; Activity (NCI-H1975 [18]): 17.5%; Activity (NCI-H1299 [19]): 90.7%; Activity (NCI-H1975 [20]): 17.1%; Activity (NCI-H1299 [21]): 8.4%; Activity (NCI-H1299 [22]): 1.47%
C=CC(=O)Nc1cc(Nc2nccc(Nc3ccn(C)n3)n2)c(OC)cc1N(C)CCN(C)C(=O)OC,288,9.84,4930,502,–,–,–,–
C=CC(=O)Nc1cc(Nc2nccc(Nc3cn(C)nc3C)n2)c(OC)cc1N(C)CCN(C)C,11.6,12.6,71.3,5.65,–,–,–,–
C=CC(=O)Nc1cc(Nc2nccc(Nc3cnn(CC)c3)n2)c(OC)cc1N(C)CCN(C)C,18.7,12.5,101,8.02,–,–,–,–
C=CC(=O)Nc1cc(Nc2nccc(Nc3ccn(C)n3)n2)c(OC)cc1N(C)CCN(C)CC(=C)C,625,8.02,3180,397,–,–,–,–
C=CC(=O)Nc1cc(Nc2nccc(Nc3cn(C)c4ccccc34)n2)c(OC)cc1N(C)CCN(C)C(=O)C#CC,949,> 172,> 10000,58,–,–,–,–
C#CCN(C)CCN(C)c1cc(OC)c(Nc2nccc(Nc3ccn(C)n3)n2)cc1NC(=O)C=C,22.3,5.92,50.8,8.58,–,–,–,–

# The next lines start with results.
IC50 [1] [nM],Ratio IC50 [2],IC50 [3] [nM],IC50 [4] [nM],IC50 (NCI-H1299 [7]) [nM],IC50 (HCC827) [nM],IC50 (A549) [nM],Structure (SMILES),other results
143,304,2470,8.13,> 100000,6460,> 100000,C=CC(=O)Nc1cc(Nc2nccc(Nc3cn(C)c4ccccc34)n2)c(OC)cc1N(C)CCN(C)Cc1ccc(Br)cc1,IC50 (NCI-H1975 [5]): 29.7 nM; selectivity ratio (in vitro [6]): 2640; selectivity ratio (in vitro [8]): 2640
–,–,–,–,3980,117,2610,C=CC(=O)Nc1cc(Nc2nccc(Nc3cn(C)c4ccccc34)n2)c(OC)cc1N(C)CCN(C)Cc1ccccc1,IC50 (NCI-H1975 [5]): 4.02 nM
46.4,78.8,453,5.75,5300,346,5190,C=CC(=O)Nc1cc(Nc2nccc(Nc3cn(C)c4ccccc34)n2)c(OC)cc1N(C)CCN(C)CC(=O)OC,IC50 (NCI-H1975 [5]): 8.31 nM; selectivity ratio (in vitro [6]): 637; selectivity ratio (in vitro [8]): 624
301,> 797,> 10000,12.5,> 100000,7150,> 100000,C=CC(=O)Nc1cc(Nc2nccc(Nc3cn(C)c4ccccc34)n2)c(OC)cc1N(C)CCN(C)C(=O)c1ccc(Br)cc1,IC50 (NCI-H1975 [5]): 37.9 nM; selectivity ratio (in vitro [6]): 3370; selectivity ratio (in vitro [8]): 3370
213,235,2910,12.3,–,–,–,C=CC(=O)Nc1cc(Nc2nccc(Nc3cn(C)c4ccccc34)n2)c(OC)cc1N(C)CCN(C)C(=O)OC,–
13.1,21.3,42.7,2,1770,24.7,1380,C=CCCN(C)CCN(C)c1cc(OC)c(Nc2nccc(Nc3cn(C)c4ccccc34)n2)cc1NC(=O)C=C,IC50 (NCI-H1975 [5]): 2.01 nM; selectivity ratio (in vitro [6]): 881; selectivity ratio (in vitro [8]): 687
64,31.4,181,5.75,–,–,–,C=CC(=O)Nc1cc(Nc2nccc(Nc3cn(C)c4ccccc34)n2)c(OC)cc1N(C)CCN(C)CC(=C)C,–
723,> 273,> 10000,36.6,–,–,–,C=CC(=O)Nc1cc(Nc2nccc(Nc3cn(C)c4ccccc34)n2)c(OC)cc1N(C)CCN(C)C(=O)C=C,–
